“Also recorded” adds a separate entry of the source. The star is where a group is joined. Myristoyl = CCCCCCCCCCCCCC(=O)*
Tests used:
[1] = IIH patients, cited from earlier work; for visual field grades: no significant difference between groups
[2] = Clinical observation of ICP in IIH patients treated with diuretics; format: in vivo
Na^+K^+ATPase [3] = details: literature refs 10, 13-15; cited from earlier work
[4] = tested on: rat choroid plexus explants; assay: Intracellular Na+ levels (Sodium Green) in choroid plexus explants; format: cell-based; details: artificial CSF+Exendin-4 for 3 hours vs no treatment
Description: Intracellular Na^+ levels were observed using Sodium Green (iNa^+) (life technologies). Briefly, rat choroid plexus explants were incubated with iNa^+ for 30 minutes before treatment with artificial CSF (no treatment) or artificial CSF+Exendin-4 for 3 hours. The fluorescence intensity directly correlates with the amount of intracellular Na^+.

GLP-1R [5] = molecular target: T1, GLP-1R (Rattus norvegicus, UniProt P32301); assay: GLP-1R localisation by immunofluorescent staining in choroid plexus explants; format: cell-based; details: 100 nM
T1 construct: The choroid plexus from the lateral ventricles were dissected and placed in artificial CSF; from tissue; host or cells: rat choroid plexus explants (lateral ventricles)
T1 sequence (P32301 22-463): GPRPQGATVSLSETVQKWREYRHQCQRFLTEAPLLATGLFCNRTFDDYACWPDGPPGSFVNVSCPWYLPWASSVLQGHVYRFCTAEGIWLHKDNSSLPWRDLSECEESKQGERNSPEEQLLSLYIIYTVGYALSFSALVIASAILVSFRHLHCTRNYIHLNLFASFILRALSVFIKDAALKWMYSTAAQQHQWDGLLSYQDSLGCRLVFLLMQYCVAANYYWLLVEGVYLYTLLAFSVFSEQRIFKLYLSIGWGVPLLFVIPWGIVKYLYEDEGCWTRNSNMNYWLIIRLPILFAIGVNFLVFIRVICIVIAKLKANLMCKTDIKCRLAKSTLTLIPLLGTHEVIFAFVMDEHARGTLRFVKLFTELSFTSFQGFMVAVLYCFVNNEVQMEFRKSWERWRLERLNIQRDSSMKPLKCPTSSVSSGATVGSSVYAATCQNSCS
Description: (§1) The choroid plexus from the lateral ventricles were dissected and placed in artificial CSF (aCSF; 118 mM NaCl, 22 mM NaHCO3, 1.45 mM K2HPO4, 1 mM MgSO4, 1 mM CaCl2 and 10 mM glucose). To evaluate the effects of Exendin-4 on GLP-1R localisation within the cell, the explants were incubated with aCSF containing 100 nM Exendin-9 for 15 minutes or 100 nM Exendin-4 for 15 and 30 minutes. The explants were then fixed and stained following the protocol described below. To determine the effects of Exendin-4 on GLP-1R mRNA expression and protein levels the explants were incubated with aCSF containing 100 nM Exendin-4 for 3 and 6 hours, immediately frozen in liquid nitrogen and stored at −80° C.
For fluorescence labelling of choroid plexus explants and CPe cells, cells were first fixed in PBS containing 2% PFA and 2% glucose for 20 minutes at room temperature, washed in PBS and then permeabilised with methanol for 6 minutes at room temperature. The cells were stained using the same technique described above except that PBST was substituted with PBS.
Stained cells and sections were viewed under a Zeiss LSM 510 UV-confocal microscope (Carl Zeiss) and multiple Z-stack images were taken.

GLP-1R [6] = molecular target: T1, GLP-1R; assay: cAMP levels in choroid plexus explants; format: cell-based; details: 3 hours, vs aCSF
Description: Histogram of mean±SEM of cAMP levels in choroid plexus explants in the 3 groups. The normal levels of cAMP observed with aCSF were increased after the addition of Exendin-4 (GLP-1R agonist) for 3 hours. Forskolin, an adenylate cyclase activator, acted as a positive control for cAMP levels;

GLP-1R [7] = molecular target: T1, GLP-1R; assay: GLP-1R mRNA (qPCR) and protein (western blot) in choroid plexus explants; format: cell-based; details: 100 nM
Description: as §1
For qPCR studies, hypothalamus, anterior pituitary and choroid plexus were dissected, immediately frozen in liquid nitrogen and stored at −80° C. Primary cultures of CPe cells were grown on 12 well inserts until confluency. Total RNA was extracted using the GenElute mammalian total RNA extraction kit (Sigma-Aldrich) and carried out according to the manufacturer's instructions. RNA was reverse transcribed to complementary DNA (cDNA) using a high capacity reverse transcription kit according to the manufacturer's protocol (Life Technologies). Taqman Gene Expression Assays (Life Technologies) were used to assess the expression of GLP-1R (assay number Rn00562406_m1). The 18S ribosomal subunit was used as an endogenous reference (4319413E) and samples were run in triplicate. The cycle number at which the particular sample crossed that threshold (Ct) was used to determine the levels of gene expression and ΔCt was calculated as the difference between the Ct (gene of interest) and the Ct (endogenous reference).
The hypothalamus, pituitary and choroid plexus were dissected, immediately frozen in liquid nitrogen and stored at −80° C. Tissues were homogenised in ice cold lysis buffer (20 mM Tris-HCl pH 7.4, 150 mM NaCl, 1 mM EDTA, 0.5 mM EGTA, 1% NP-40 containing protease inhibitor) and centrifuged at 13,000 g to remove cell debris. CPe cells were grown on 12 well inserts until confluency. Cell and tissue lysates (3 μg protein) were separated on an 8% SDS-PAGE gel. […] After washing in TBST the membranes were incubated with HRP-conjugated secondary antibody diluted in milk/TBST for 1 hour at room temperature. The bands were detected using ECL reagents (Amersham) and developed onto film.

GLP-1R [8] = molecular target: T1, GLP-1R; assay: cAMP assay in primary CPe cells; format: cell-based
Description: (§2) Choroid plexus tissue from lateral and fourth ventricles were dissected and incubated with 0.25% trypsin solution for 2.5 hours at 4° C. followed by 30 minutes at 37° C. Trypsin digestion was stopped by the addition of newborn calf serum and the cell suspension was centrifuged at 20 g for 10 minutes. Cells were resuspended in DMEM/F12 supplemented with 10% FBS, 1% penicillin/streptomycin, 4 mM L-glutamine, 200 ng/ml hydrocortisone, 5 ng/ml sodium selenite and 10 ng/ml EGF. 20 μM cytosine arabinoside was used for the first 4 days in culture to limit the growth of fibroblasts (Gath et al., 1997). Initially the cells were seeded onto a laminin coated 6 well plate and allowed to grow for 2 days before being transferred to laminin coated 96 well plates or 12 well inserts (Greiner Bio-One Ltd). On day 4 the media was replaced with DMEM/F12 supplemented with 10% FBS and 1% penicillin/streptomycin and changed every 2-3 days. After reaching confluency, CPe cells were serum deprived for 3 days prior to the beginning of the studies (between days 10-14).
The effect of Exendin-4 on the downstream GLP-1R signalling pathway was assessed by measuring the levels of cAMP in CPe cells using the Amersham cAMP Biotrak Enzyme immunoassay (EIA) System (RPN 225, GE Healthcare Life Sciences). […] The cells were subsequently lysed and cAMP detected according to the manufacturer's instructions.

Na^+K^+ATPase [9] = assay: Na+K+ATPase activity assay in CPe cells; format: cell-based, rat
Description: as §2
The effect of Exendin-4 on Na^+K^+ATPase activity in the choroid plexus was evaluated by the colorimetric measurement of phosphate released from ATP with the use of a phosphate assay kit (ab65622, Abcam); with Na^+K^+ATPase activity being defined as the portion of phosphate produced that is sensitive to Ouabain. CPe cells were incubated with aCSF for 1 hour at 37° C. before incubation in aCSF containing; 100 nM Exendin-4 (n=7), 5 μM PKI-16-22-amide (n=8), 100 nM Exendin-4+5 μM PKI-16-22-amide (n=8); in the presence and absence of 1 mM Ouabain for 30 minutes at 37° C. The cells were then lysed on ice and spun at 13,000 g to remove cell debris. Phosphate was measured as per the manufacturer's instructions. Briefly the samples were added to the reaction mix and incubated at room temperature for 60 minutes before the plate was read at 690 nm. Na^+K^+ATPase activity was calculated as the difference between the amount of phosphate produced in the presence and absence of Ouabain for each treatment.

[10] = ICP recordings in conscious rats (epidural pressure bolt); format: in vivo, rat; details: for change in ICP from baseline: 30 and 60 minutes post treatment
Description: This procedure and its validation were recently published as a methodological work and contains all technical and surgical detail (Uldall et al, 2014). In brief, rats were anaesthetised (2.7 ml/kg subcutaneous injection containing 1.25 mg/ml midazolam, 2.5 mg/ml fluanisone and 0.079 mg/ml fentanylcitrate). The rat was placed in a stereotactic frame (David Kopf Instruments) and a 2 cm-midline incision was performed on top of the skull and the bone was exposed by retracting the skin and soft tissue. A dental drill was used to induce 4 burr holes in the skull; one large hole was carefully drilled to expose the dura mater to enable placement of the epidural pressure bolt (C313G-3UP, PlasticsOne), with the cannula cut to be level with the base of the pedestal. The other 3 smaller holes were used to fit anchoring screws to the skull. The epidural pressure bolt and the anchoring screws were placed and aligned with the interior surface of the skull and secured using dental resin-cement (Clearfil SA Cement, RH Dental). The epidural pressure bolt and the transducer (DTX-Plus™, Argon Medical Devices) were then connected by a polyethylene tube filled with sterile water, ensuring the absence of air bubbles.
The pressure signal was visualised and recorded using Perisoft v.2.5.5 (Perimed). Correct ICP signal was confirmed by the transient elevation of ICP after jugular vein compression. When the ICP recording procedure was completed the epidural pressure bolt was closed with a bite proof cap (303DCFTX2, PlasticsOne) and the rat allowed to recover.
In order to perform recordings in conscious animals, rats were sedated with midazolam (2.5 mg/kg subcutaneous injection) and the transducer connected to the epidural pressure bolt. […] The ICP signal was again confirmed by jugular vein compression as described above. […]

CC(=O)Nc1nnc(S(N)(=O)=O)s1 [Acetazolamide]
visual field grades [1]: improved from baseline

CC1(C)O[C@@H]2[C@@H](CO[C@@]3(COS(N)(=O)=O)OC(C)(C)O[C@@H]23)O1 [Topiramate]
visual field grades [1]: improved from baseline | therapeutic benefit on IIH versus acetazolamide control cohort [1]: no therapeutic benefit on IIH was noted above the control cohort | weight loss [1]: induce weight loss

NS(=O)(=O)c1cc(C(=O)O)c(NCc2ccco2)cc1Cl [furosemide]
effects on ICP in IIH patients [2]: clinically beneficial effects on ICP

C[C@@H]1O[C@@H](O[C@H]2C[C@@H](O)[C@]3(CO)[C@H]4[C@H](O)C[C@]5(C)[C@@H](C6=CC(=O)OC6)CC[C@]5(O)[C@@H]4CC[C@]3(O)C2)[C@H](O)[C@H](O)[C@H]1O [ouabain, Ouabain]
CSF secretion (Na^+K^+ATPase [3]): totally inhibited

Exendin-4
intracellular Na+ levels (Sodium Green fluorescence) [4]: higher numbers of intense fluorescent choroid plexus epithelial cells with no treatment | intracellular Na+ levels (Sodium Green fluorescence) ([4]; listed as exendin-4): reduce intracellular sodium | GLP-1R localisation after 15 minutes (GLP-1R [5]): predominantly restricted to the apical surface; also recorded: relocation of the GLP-1R to the apical surface | GLP-1R localisation after 30 minutes (GLP-1R [5]; 30 minutes): translocated back to the cytoplasm; also recorded: internalised | cAMP levels in choroid plexus explants (GLP-1R [6]): increased | cAMP levels in choroid plexus explants (GLP-1R [6]; listed as exendin-4): increased levels of cAMP | GLP-1R mRNA level (GLP-1R [7]; 3 hours, vs aCSF): significant increases | GLP-1R protein level (GLP-1R [7]; 3 hours, vs aCSF): significant increases | GLP-1R mRNA level (GLP-1R [7]; 6 hours): returned to basal levels | GLP-1R protein level (GLP-1R [7]; 6 hours): remained high | increase in cAMP compared to baseline (GLP-1R [8]; 100 nM, 30 minutes, 1 mM IBMX): 2 fold | cAMP levels in CPe cells compared to control (in words) (GLP-1R [8]; FIG. 10A): significantly increased | Na+K+-ATPase activity compared to control (in words) (Na^+K^+ATPase [9]; 100 nM, 30 minutes, FIG. 10B): reduced | Na+K+ATPase specific phosphate production (Na^+K^+ATPase [9]; 100 nM, 30 minutes, ouabain-sensitive): 39.3±9.4 % of control | change in ICP from baseline ([10]; 1 μg/kg): lowered the ICP from baseline | change in ICP from baseline ([10]; 3 μg/kg): lowered the ICP from baseline | change in ICP from baseline ([10]; 5 μg/kg): greatest reduction | ICP over a 24 hour period ([10]; 5 μg/kg, 24 hours): remained reduced | time to significant ICP reduction compared to saline ([10]; conscious rats, 20 μg/kg subcutaneous): ≤ 10 min | persistence of ICP reduction during recording ([10]; conscious rats, 20 μg/kg subcutaneous, 60 minutes recording): remained significantly lower for the rest of the recording; also recorded: lasted for the full 60 minutes | ICP reduction from baseline ([10]; conscious rats, 20 μg/kg subcutaneous, within 10 minutes): 60.6±4.9%

Exendin-9
GLP-1R localisation after 15 minutes (GLP-1R [5]): predominantly restricted to the apical surface; also recorded: restricted to the apical membrane

myristoylated protein kinase inhibitor (PKI)-(14-22)-amide (Myristoyl-SGRTGRRNA-NH2; UniProt P61925 14-22, looked up, fragment) [PKA inhibitor]
effect on the Exendin-4 reduction in Na+K+ATPase activity (Na^+K^+ATPase [9]; 5 μM PKA inhibitor + 100 nM Exendin-4): abolish the Exendin-4 reduction

Reference: patent US11738067B2, “Elevated intracranial pressure treatment” (INVEX THERAPEUTICS LTD., priority 2014, dated 2023)
